Test results published in patent US20260364079A1 (Principia Biopharma Inc., priority 2022, published 2026).
Entries after “also recorded” stand apart in the source; their conditions may differ.

What was measured:
251 kinases = test: broad kinase enzyme inhibition panel; type: biochemical; conditions: 1 μM; of 251 kinases
other TEC family members = test: preclinical assays of binding persistence, other TEC family members; conditions: over time
rat Arthus reaction = test: rat Arthus reaction; type: in vivo
immune thrombocytopenia = test: mouse model of immune thrombocytopenia; type: in vivo; conditions: mouse ITP model
Pemphigus foliaceus = test: treatment of dogs with newly diagnosed, naturally occurring Pemphigus foliaceus; type: in vivo
Fc receptor signaling = test: in vitro antibody (IgG, IgE) mediated activation of immune cells via Fc receptor signaling; type: cell-based
[1] = in comparison to first and second generation BTKi; cited from earlier work
[2] = humans, oral administration; cited from earlier work

CC(C)(C=C(C#N)C(=O)N1CCC[C@@H](n2nc(-c3ccc(Oc4ccccc4)cc3F)c3c(N)ncnc32)C1)N1CCN(C2COC2)CC1 (mixture of isomers) [rilzabrutinib, (R)-2-[3-[4-amino-3-(2-fluoro-4-phenoxy-phenyl)pyrazolo[3,4-d]pyrimidin-1-yl]piperidine-1-carbonyl]-4-methyl-4-[4-(oxetan-3-yl)piperazin-1-yl]pent-2-enenitrile]
number of kinases with >90% inhibition (251 kinases): 6 kinases
persistence of binding to other TEC family members (other TEC family members): decayed rapidly over time
effect on rat Arthus reaction (rat Arthus reaction): blockade of the rat Arthus reaction
platelet loss (consumption) (immune thrombocytopenia): reduction in platelet loss; also recorded: significant dose dependent reduction of platelet-loss
cases with disease safely controlled without the need for corticosteroid (Pemphigus foliaceus): 4 of 4
antibody (IgG, IgE) mediated activation of immune cells via Fc receptor signaling (Fc receptor signaling): blocks antibody (IgG, IgE) mediated activation of immune cells via Fc receptor signaling
cross-reactivity with other molecules [1]: minimal cross-reactivity with other molecules and is low risk for off-target effects
pharmacokinetics variability [2]: variable pharmacokinetics
